The text below walks through data of publication PMC5060005 (Bioorganic & medicinal chemistry, 2016).

Targets include 5-HT2A receptor (Homo sapiens, UniProt P28223); 5-HT7 receptor (Homo sapiens, UniProt P34969); 5-HT1A receptor (Homo sapiens, UniProt P08908).
The next test addresses 5-HT2C receptor (Homo sapiens, UniProt P28335). The conditions noted are these: MTA = Missed 50% of threshold inhibition; Ki without SEM within 20% of mean.
Another test concerns the target SERT (Homo sapiens, UniProt P31645). The conditions noted are these: MTA = Missed 50% of threshold inhibition; Ki without SEM within 20% of mean.
A further test deals with histamine H1 receptor (Homo sapiens, UniProt P35367). The settings on record: MTA = Missed 50% of threshold inhibition; Ki without SEM within 20% of mean.
A further test addresses 5-HT2B receptor (Homo sapiens, UniProt P41595). The conditions noted are these: MTA = Missed 50% of threshold inhibition; Ki without SEM within 20% of mean.
The target of the next test is D2 receptor (Homo sapiens, UniProt P14416). The settings on record: MTA = Missed 50% of threshold inhibition; Ki without SEM within 20% of mean.
A further test addresses D3 receptor (Homo sapiens, UniProt P35462). The settings on record: MTA = Missed 50% of threshold inhibition; Ki without SEM within 20% of mean.
[1] abbreviates: MTA = Missed 50% of threshold inhibition, Ki without SEM within 20% of mean.

Structures can show the parent of a compound that is named as a salt. Where two headings read alike, the source gives them in different places.

5-HT2C receptor, sequence (P28335 33-458): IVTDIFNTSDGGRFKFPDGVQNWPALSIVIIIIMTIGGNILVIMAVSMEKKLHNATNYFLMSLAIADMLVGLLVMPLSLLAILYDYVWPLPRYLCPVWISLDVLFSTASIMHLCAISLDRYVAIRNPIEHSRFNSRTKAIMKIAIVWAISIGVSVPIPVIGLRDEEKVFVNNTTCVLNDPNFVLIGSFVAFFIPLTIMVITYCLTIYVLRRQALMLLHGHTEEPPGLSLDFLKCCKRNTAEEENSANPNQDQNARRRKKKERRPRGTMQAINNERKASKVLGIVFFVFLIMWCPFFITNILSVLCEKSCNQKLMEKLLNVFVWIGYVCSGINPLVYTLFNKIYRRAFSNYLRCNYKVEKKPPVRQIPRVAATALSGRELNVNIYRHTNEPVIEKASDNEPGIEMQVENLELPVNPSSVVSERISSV
5-HT2B receptor, sequence (P41595 whole entry): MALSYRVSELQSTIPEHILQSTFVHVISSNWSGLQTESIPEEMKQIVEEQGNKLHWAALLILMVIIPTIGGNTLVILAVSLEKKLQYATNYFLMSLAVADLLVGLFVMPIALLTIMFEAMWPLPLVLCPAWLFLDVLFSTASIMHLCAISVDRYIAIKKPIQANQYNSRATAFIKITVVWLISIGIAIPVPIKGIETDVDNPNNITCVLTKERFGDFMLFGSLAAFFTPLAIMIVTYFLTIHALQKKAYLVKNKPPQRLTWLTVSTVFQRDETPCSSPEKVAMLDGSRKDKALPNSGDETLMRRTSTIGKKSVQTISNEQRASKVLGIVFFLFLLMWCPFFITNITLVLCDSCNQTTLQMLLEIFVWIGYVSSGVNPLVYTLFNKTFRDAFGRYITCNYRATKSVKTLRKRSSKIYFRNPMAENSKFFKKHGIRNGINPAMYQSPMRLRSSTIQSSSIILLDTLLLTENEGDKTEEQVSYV
SERT, sequence (P31645 whole entry, species assumed): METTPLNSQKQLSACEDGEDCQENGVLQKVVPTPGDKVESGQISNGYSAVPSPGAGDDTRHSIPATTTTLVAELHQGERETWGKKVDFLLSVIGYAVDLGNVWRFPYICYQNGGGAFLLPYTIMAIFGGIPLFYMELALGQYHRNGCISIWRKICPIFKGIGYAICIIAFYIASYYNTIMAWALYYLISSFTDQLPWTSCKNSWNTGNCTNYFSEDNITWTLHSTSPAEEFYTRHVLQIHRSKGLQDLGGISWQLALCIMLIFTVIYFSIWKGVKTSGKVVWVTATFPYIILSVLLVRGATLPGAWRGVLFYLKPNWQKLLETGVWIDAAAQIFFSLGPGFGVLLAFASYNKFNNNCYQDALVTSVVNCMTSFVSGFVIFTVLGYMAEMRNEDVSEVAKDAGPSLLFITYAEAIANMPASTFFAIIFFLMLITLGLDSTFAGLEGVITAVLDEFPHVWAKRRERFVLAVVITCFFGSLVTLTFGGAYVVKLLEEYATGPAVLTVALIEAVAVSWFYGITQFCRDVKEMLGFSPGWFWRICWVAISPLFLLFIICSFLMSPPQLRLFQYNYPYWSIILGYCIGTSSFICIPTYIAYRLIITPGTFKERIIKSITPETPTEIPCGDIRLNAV
D2 receptor, sequence (P14416 whole entry): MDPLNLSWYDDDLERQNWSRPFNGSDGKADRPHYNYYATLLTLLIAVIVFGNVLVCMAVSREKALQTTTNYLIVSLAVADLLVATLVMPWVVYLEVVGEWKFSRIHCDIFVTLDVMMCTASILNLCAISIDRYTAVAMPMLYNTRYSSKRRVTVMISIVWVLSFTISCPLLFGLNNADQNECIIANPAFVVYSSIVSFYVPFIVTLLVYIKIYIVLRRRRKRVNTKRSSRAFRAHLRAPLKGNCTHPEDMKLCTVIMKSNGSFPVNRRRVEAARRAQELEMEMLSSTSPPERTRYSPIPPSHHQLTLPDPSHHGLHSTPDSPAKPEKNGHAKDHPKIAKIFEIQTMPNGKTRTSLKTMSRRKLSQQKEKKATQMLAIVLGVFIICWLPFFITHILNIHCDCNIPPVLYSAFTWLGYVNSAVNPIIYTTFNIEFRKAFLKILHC
5-HT2A receptor, sequence (P28223 whole entry): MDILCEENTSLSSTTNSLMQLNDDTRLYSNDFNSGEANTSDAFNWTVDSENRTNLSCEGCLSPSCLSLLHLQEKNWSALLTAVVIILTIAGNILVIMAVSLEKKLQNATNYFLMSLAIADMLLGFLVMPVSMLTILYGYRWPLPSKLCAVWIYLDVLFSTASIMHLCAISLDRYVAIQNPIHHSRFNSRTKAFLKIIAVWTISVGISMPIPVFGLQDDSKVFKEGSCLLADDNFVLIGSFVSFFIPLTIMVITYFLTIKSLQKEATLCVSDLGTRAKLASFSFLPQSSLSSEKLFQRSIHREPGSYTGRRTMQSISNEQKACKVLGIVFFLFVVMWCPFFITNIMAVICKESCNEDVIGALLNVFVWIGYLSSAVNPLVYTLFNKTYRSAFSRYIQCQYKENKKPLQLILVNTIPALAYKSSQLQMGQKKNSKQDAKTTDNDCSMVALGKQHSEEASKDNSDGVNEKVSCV
histamine H1 receptor, sequence (P35367 whole entry, species assumed): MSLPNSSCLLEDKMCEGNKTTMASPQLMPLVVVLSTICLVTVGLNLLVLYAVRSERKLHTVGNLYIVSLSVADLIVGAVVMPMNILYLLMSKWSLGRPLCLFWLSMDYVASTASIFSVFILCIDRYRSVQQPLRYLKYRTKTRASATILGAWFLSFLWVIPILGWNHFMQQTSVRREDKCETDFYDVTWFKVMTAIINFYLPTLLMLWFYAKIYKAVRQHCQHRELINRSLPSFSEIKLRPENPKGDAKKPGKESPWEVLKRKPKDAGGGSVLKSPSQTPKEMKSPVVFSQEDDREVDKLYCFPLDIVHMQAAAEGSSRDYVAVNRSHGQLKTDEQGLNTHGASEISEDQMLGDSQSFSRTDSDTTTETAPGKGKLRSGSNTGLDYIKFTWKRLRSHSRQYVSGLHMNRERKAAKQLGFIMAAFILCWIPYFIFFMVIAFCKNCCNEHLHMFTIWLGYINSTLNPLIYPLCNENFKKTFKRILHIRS
5-HT7 receptor, sequence (P34969 whole entry): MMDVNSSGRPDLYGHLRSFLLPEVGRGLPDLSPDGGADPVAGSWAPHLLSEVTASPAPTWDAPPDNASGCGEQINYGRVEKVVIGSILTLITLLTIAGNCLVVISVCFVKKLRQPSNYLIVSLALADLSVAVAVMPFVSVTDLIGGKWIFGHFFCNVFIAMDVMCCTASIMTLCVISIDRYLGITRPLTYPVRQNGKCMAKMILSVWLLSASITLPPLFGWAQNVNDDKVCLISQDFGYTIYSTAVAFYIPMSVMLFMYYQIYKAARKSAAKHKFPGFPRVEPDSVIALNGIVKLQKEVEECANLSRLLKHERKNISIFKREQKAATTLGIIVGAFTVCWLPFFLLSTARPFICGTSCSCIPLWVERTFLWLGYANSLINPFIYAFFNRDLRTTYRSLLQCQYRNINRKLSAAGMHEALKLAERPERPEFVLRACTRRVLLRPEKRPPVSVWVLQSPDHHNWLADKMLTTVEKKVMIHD
5-HT1A receptor, sequence (P08908 whole entry): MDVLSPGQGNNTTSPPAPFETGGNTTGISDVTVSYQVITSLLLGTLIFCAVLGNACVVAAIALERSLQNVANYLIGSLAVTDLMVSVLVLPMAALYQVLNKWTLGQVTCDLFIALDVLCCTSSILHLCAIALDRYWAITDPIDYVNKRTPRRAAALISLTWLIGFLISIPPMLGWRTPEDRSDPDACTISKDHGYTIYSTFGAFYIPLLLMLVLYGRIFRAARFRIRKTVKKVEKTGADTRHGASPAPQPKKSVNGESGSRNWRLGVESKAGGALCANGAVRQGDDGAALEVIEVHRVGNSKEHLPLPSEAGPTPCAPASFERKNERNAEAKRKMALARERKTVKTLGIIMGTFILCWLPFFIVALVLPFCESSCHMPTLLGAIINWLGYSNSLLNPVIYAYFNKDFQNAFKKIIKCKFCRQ
D3 receptor, sequence (P35462 whole entry): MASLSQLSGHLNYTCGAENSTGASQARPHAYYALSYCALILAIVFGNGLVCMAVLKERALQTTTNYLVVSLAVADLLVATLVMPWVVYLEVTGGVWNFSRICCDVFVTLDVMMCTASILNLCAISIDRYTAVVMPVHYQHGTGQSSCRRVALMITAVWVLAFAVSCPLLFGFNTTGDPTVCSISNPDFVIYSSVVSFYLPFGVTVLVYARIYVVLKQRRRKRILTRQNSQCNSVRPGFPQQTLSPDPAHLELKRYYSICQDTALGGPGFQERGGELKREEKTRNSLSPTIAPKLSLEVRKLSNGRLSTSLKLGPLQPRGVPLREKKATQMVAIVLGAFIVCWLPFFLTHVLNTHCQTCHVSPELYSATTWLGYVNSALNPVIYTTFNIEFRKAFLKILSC

For the compound `Cl.Fc1ccc(OCCCN2CCc3ccccc3C2)cc1` [Compound 7, 2-(3-(4-Fluorophenoxy)propyl)-1,2,3,4-tetrahydroisoquinoline hydrochloride], the “Ki 5-HT2C” value on 5-HT2C receptor is reported as “MTA”. Further, at SERT, the “Ki SERT” value is reported as “MTA”.

On to `O=C1c2ccccc2C(=O)N1CCCCN1CCc2ccccc2C1` [Compound 1, 2-(4-(3,4-Dihydroisoquinolin-2(1H)-yl)butyl)isoindoline-1,3-dione], for which the “Ki H1” value at histamine H1 receptor is on record as “MTA”. Besides, the “Ki 5-HT2B” value at 5-HT2B receptor is given as “MTA”. In addition, the “Ki 5-HT2A” value at 5-HT2A receptor is “MTA”. In addition, the “Ki D2” value on D2 receptor is “MTA”. Further, the “Ki 5-HT2C” value on 5-HT2C receptor is “MTA”. On SERT, the “Ki SERT” value is on record as “MTA”.

For the compound `O=C1c2ccccc2C(=O)N1CCCCN1CCC2CCCCC2C1` (centres unmarked) [Compound 2, 2-(4-(Octahydroisoquinolin-2(1H)-yl)butyl)isoindoline-1,3-dione], the “decrease in binding affinity to the 5-HT7R” value at 5-HT7 receptor (relative to compound 1) was ~40 fold.

For the compound `Cl.Fc1ccc(SCCCN2CCc3ccccc3C2)cc1` [Compound 8, 2-(3-((4-Fluorophenyl)thio)propyl)-1,2,3,4-tetrahydroisoquinoline hydrochloride], the “Ki SERT” value at SERT was “MTA”.

Regarding `Cl.Fc1ccc2c(c1)CC(CCN1CCc3ccccc3C1)C2` (centres unmarked) [Compound 5, 2-(2-(5-Fluoro-2,3-dihydro-1H-inden-2-yl)ethyl)-1,2,3,4-tetrahydroisoquinoline hydrochloride], the “Ki 5-HT2C” value at 5-HT2C receptor is on record as “MTA”.

For the compound `O=C(CCCN1CCc2ccccc2C1)c1ccc(F)cc1` [Compound 10, 4-(3,4-Dihydroisoquinolin-2(1H)-yl)-1-(4-fluorophenyl)butan-1-one], the “increase in binding affinity at the 5-HT1AR” value at 5-HT1A receptor (relative to compound 9) worked out at 3 fold. Also, the “Ki SERT” value at SERT is listed as “MTA”.

For `O=C1c2ccccc2C(=O)N1CCCCN1Cc2ccccc2C1` [Compound 3, 2-(4-(Isoindolin-2-yl)butyl)isoindoline-1,3-dione], the “Ki H1” value on histamine H1 receptor is “MTA”. Moreover, the “Ki 5-HT1A” value at 5-HT1A receptor (setting [1]) is listed as “MTA”. The “Ki 5-HT2B” value on 5-HT2B receptor is given as “MTA”. Besides, the “Ki 5-HT2A” value on 5-HT2A receptor (setting [1]) is “MTA”. The “Ki 5-HT7” value on 5-HT7 receptor (setting [1]) was “MTA”. Besides, the “Ki D2” value on D2 receptor is listed as “MTA”. In addition, the “Ki D3” value on D3 receptor is on record as “MTA”. Further, the “Ki SERT” value at SERT was “MTA”.

Regarding `Cl.[O-][S+](CCCN1CCc2ccccc2C1)c1ccc(F)cc1` (centres unmarked) [Compound 9, 2-(3-((4-Fluorophenyl)sulfinyl)propyl)-1,2,3,4-tetrahydroisoquinoline hydrochloride], at 5-HT2C receptor, the “Ki 5-HT2C” value was “MTA”. For the same compound, the “Ki SERT” value on SERT was “MTA”.

For the compound `c1ccc2c(c1)CCN(CCCCc1c[nH]c3ccccc13)C2` [Compound 4, 2-(4-(1H-indol-3-yl)butyl)-1,2,3,4-tetrahydroisoquinoline], the “Ki 5-HT2B” value on 5-HT2B receptor is “MTA”. In addition, the “Ki 5-HT2C” value at 5-HT2C receptor is “MTA”.

For `O=C(CCCN1CCc2ccccc2C1)c1ccc(O)cc1` [Compound 15, 4-(3,4-Dihydroisoquinolin-2(1H)-yl)-1-(4-hydroxyphenyl)butan-1-one hydrochloride], on 5-HT2C receptor, the “Ki 5-HT2C” value was “MTA”.
